These results are taken from patent publication US9062014B2, “Crystalline forms of (R)-5-[3-chloro-4-(2,3-dihydroxy-propoxy)-benz[Z]ylidene]-2-([Z]-propylimino)-3-0-tolyl-thiazolidin-4-one” (ACTELION PHARMACEUTICALS LTD., priority 2008, dated 2015).

The nature of the data set: Hygroscopicity by gravimetric vapour sorption (GVS). The conditions noted are these: 25° C.; for Hygroscopicity classification according to the European Pharmacopea Technical Guide (1999 edition): mass change between 40% and 80% relative humidity, first adsorption scan; for mass gain: mass change between 40% relative humidity and 80% relative humidity in the first adsorption scan. In kind it is physicochemical. The method, then:
Gravimetric Vapour Sorption (GVS)
Sorption isotherms are obtained using a Hiden IGASorp moisture sorption analyser, controlled by CFRSorp software. The sample temperature is maintained at 25° C. by a Huber re-circulating water bath. The humidity is controlled by mixing streams of dry and wet nitrogen, with a total flow rate of 250 ml·min^−1. The relative humidity is measured by a calibrated Vaisala RH probe (dynamic range of 0-95% RH), located near the sample. The weight change of the sample as a function of % RH is constantly monitored by the microbalance (accuracy±0.001 mg).
Typically 10-20 mg of sample is placed in a tared mesh stainless steel basket under ambient conditions. The sample is loaded and unloaded at 40% RH and 25° C. (typical room conditions).
A moisture sorption isotherm is performed as outlined below (2 scans giving 1 complete cycle). The standard isotherm is performed at 25° C. at 10% RH intervals over a 0-90% RH range.
The software uses a least squares minimisation procedure together with a model of the mass relaxation, to predict an asymptotic value. The measured mass relaxation value must be within 5% of that predicted by the software, before the next % RH value is selected. The minimum equilibration time is set to 1 hour and the maximum to 4 hours.
Classification is done according to the European Pharmacopea Technical Guide (1999 edition) (e.g. slightly hygroscopic: increase in mass is less than 2% and equal to or greater than 0.2% mass/mass; hygroscopic: increase in mass is less than 15% and equal to or greater than 2% mass/mass). The mass change between 40% relative humidity and 80% relative humidity in the first adsorption scan is considered.

For `CCC/N=C1\S/C(=C\c2ccc(OC[C@H](O)CO)c(Cl)c2)C(=O)N1c1ccccc1C` [Amorphous, (R)-5-[3-chloro-4-(2,3-dihydroxy-propoxy)-benz[Z]ylidene]-2-([Z]-propylimino)-3-o-tolyl-thiazolidin-4-one], the “Hygroscopicity classification according to the European Pharmacopea Technical Guide (1999 edition)” value (from here on “Hygroscopicity classification according”) was “Hygroscopic (hygroscopic: increase in mass is less than 15% and equal to or greater than 2% mass/mass)”; the mass gain was 2.1%.
In the case of `CCC/N=C1\S/C(=C\c2ccc(OC[C@H](O)CO)c(Cl)c2)C(=O)N1c1ccccc1C` [Form A, (R)-5-[3-chloro-4-(2,3-dihydroxy-propoxy)-benz[Z]ylidene]-2-([Z]-propylimino)-3-o-tolyl-thiazolidin-4-one], the “Hygroscopicity classification according” value is listed as “Non-hygroscopic” and the mass gain was less than 0.2%.
With `CCC/N=C1\S/C(=C\c2ccc(OC[C@H](O)CO)c(Cl)c2)C(=O)N1c1ccccc1C` [Form C, (R)-5-[3-chloro-4-(2,3-dihydroxy-propoxy)-benz[Z]ylidene]-2-([Z]-propylimino)-3-o-tolyl-thiazolidin-4-one], the “Hygroscopicity classification according” value is given as “Non-hygroscopic” and the mass gain is given as less than 0.2%.
Take `CCC/N=C1\S/C(=C\c2ccc(OC[C@H](O)CO)c(Cl)c2)C(=O)N1c1ccccc1C` [Form II, (R)-5-[3-chloro-4-(2,3-dihydroxy-propoxy)-benz[Z]ylidene]-2-([Z]-propylimino)-3-o-tolyl-thiazolidin-4-one]: the “Hygroscopicity classification according” value was “Slightly hygroscopic (slightly hygroscopic: increase in mass is less than 2% and equal to or greater than 0.2% mass/mass)”; the mass gain stood at 0.2%.
